In patent publication US7872040B2, “Receptor blocker and vasodilator comprising indole derivative as active ingredient” (priority 2004, dated 2011):

Tests used:
α2-adrenoceptor = assay: Relaxation of clonidine-induced contraction of isolated rat thoracic aorta ring preparations (α2-receptor antagonistic and vasodilator effect); details: sample 10^-5 M; Wistar rat thoracic aorta rings contracted with clonidine (10^-7 M or 10^-6 M) in presence of L-NAME 10^-4 M; mean±standard error
Source text: (1) Preparation of Blood Vessel
Male Wistar rats were euthanized by cervical dislocation under ether anesthesia or without anesthesia and then exsanguinated by cutting the carotid arteries. Immediately thereafter, the thoracic aortae were isolated by thoracotomy. The isolated preparations were held in Krebs-Hepes solutions [mM: NaCl, 126.9; KCl, 5.9; CaCl2, 2.36; MgCl2, 1.18; Hepes, 10.03; glucose, 11.8 (pH=7.4)] gassed with O2 (100%). The connective tissues and adipose tissues were carefully removed under a stereoscopic microscope. Then, the aortic tissue was cut into ring preparations approximately 2 mm in length to use in the experiment. The vascular endothelium was not removed.
(2) Measurement of Muscle Contractile/Relaxant Response
The blood vessel preparations were held in an organ bath (UC-5TD, UFER™ Medical Instrument, Kyoto, Japan) containing 5 ml of Normal Tyrode's solution gassed with 95% O2-5% CO2. Two stainless hooks were used to suspend the preparations. Tension changes were recorded isometrically via tension transducers (T7-8-240, ORIENTEC Co., Ltd, Tokyo, Japan; and TB-611T, NIHON KOHDEN Corp., Tokyo, Japan) and amplifiers (AP-600G and AP-621G, NIHON KOHDEN Corp., Tokyo, Japan; and MSC-2, Labo Support Corporation, Osaka, Japan). Passive tension was set to the optimum tension of 2.0 g. The composition of the Normal Tyrode's solution was as follows: (mM): NaCl, 158.3; KCl, 4.0; CaCl2, 2.0; MgCl2, 1.05; NaH2PO4, 0.42; NaHCO3, 10.0; glucose, 5.6 (pH=7.4, 37±0.5° C.).
The preparations were then incubated for 60 to 90 minutes in Normal Tyrode's solution, which was replaced with 20-minute to 30-minute intervals. To start the experiment, the preparations were first allowed to contract with a high potassium solution (high-KCl, 80 mM KCl) [composition (mM): NaCl, 82.3; KCl, 80.0; CaCl2, 2.0; MgCl2, 1.05; NaH2PO4, 0.42; NaHCO3, 10.0; glucose, 5.6 (pH=7.4)] to confirm that the preparations normally contracted. Then, the preparations were washed with a Normal Tyrode's solution, and the experiment was started.
For the purpose of evaluating the potencies of indole derivatives tested, the artery preparations were stimulated with an α2-adrenoceptor agonist clonidine hydrochloride (Wako Pure Chemical Industries, Ltd., Osaka, Japan) (10^−7 M or 10^−6 M) in the presence of an NO synthase inhibitor N^G-nitro-L-arginine methyl ester (DOJNDO Laboratories, Kumamoto, Japan) (10^−4 M) to thereby induce continuous contraction. After developed tension reached a steady-sate level, samples (indole derivatives) (10^−5 M) were administered to the bath solution. After the relaxant effects of the samples reached the maximum levels, an α2-adrenoceptor antagonist yohimbine hydrochloride (Wako Pure Chemical Industries, Ltd., Osaka, Japan) (10^−5 M) was administered to the bath solution. Relaxant response to yohimbine hydrochloride (10^−5 M) and the height of contraction immediately before sample administration were defined as the maximum relaxation (=100%) and 0%, respectively, and the relaxant effect of the samples were expressed as percentages relative to the maximum relaxation to yohimbine hydrochloride (10^−5 M).
The indole derivatives (samples Nos. 1 to 23) were dissolved in 100% dimethyl sulfoxide at a concentration of 10^−2 M just before use and administered to a 5-mL organ bath for evaluation. All the other drugs were dissolved and diluted in distilled water.
The results were expressed as mean±standard error.

[1] = Clinical report: one test subject took sample No. 16 for 9 months and was followed up; assay type: in vivo, human
Protocol: A test subject was allowed to take the indole derivative (N-nonanoylindole-3-ethaneamine) of the sample No. 16 for 9 months, and followed up.
Test subject: healthy, 67 kg in body weight
Information before medication: non-smoking, approximately 180 ml of sake per week, well-balanced diets (meats, vegetables, and fishes) without fatty eating. The test subject has 100% white hair and goes to a barber shop once every five weeks. Their mustaches are sparse and remain in an unobtrusive growth state by shaving approximately once every two days. They are in the habit of jogging on Sunday. Muscle ache occurs about two days after the jogging and lasts for approximately 4 days. They feel insecure in erection (ED for approximately half a year).
Dosage and administration: two doses per day, administered at 1 mg around 12 p.m. and at 1 mg around 0 a.m.

[2] = after one month, 1 mg two doses per day

| Compound | Reaction (%): relaxant effect relative to the maximum relaxation to yohimbine hydrochloride (10^-5 M) (α2-adrenoceptor) [%] | other results |
| --- | --- | --- |
| COc1ccc2[nH]cc(CCNC(C)=O)c2c1 [compound 1, N-acetyl-5-methoxyindole-3-ethaneamine, reference compound] | 6.7 ± 6.7 |  |
| COc1ccc2c(c1)c(CCNC(C)=O)cn2C(C)=O [compound 2, N,1-diacetyl-5-methoxyindole-3-ethaneamine] | 18.5 ± 9.8 |  |
| COc1ccc2[nH]cc(CCN(C(C)=O)C(C)=O)c2c1 [compound 3, N,N-diacetyl-5-methoxyindole-3-ethaneamine] | 25.6 ± 7.5 |  |
| COc1ccc2[nH]cc(CCNC(C)=O)c2c1Br [compound 4, N-acetyl-4-bromo-5-methoxyindole-3-ethaneamine] | 20.3 ± 4.6 |  |
| COc1ccc2[nH]c(Br)c(CCNC(C)=O)c2c1 [compound 5, N-acetyl-2-bromo-5-methoxyindole-3-ethaneamine] | 43.1 ± 16.0 |  |
| COc1cc2c(CCNC(C)=O)c(Br)[nH]c2cc1Br [compound 6, N-acetyl-2,6-dibromo-5-methoxyindole-3-ethaneamine] | 64.0 ± 4.1 |  |
| COc1ccc2[nH]c(Br)c(CCNC(C)=O)c2c1Br [compound 7, N-acetyl-2,4-dibromo-5-methoxyindole-3-ethaneamine] | 73.5 ± 15.3 |  |
| COc1c(Br)cc2[nH]c(Br)c(CCNC(C)=O)c2c1Br [compound 8, N-acetyl-2,4,6-tribromo-5-methoxyindole-3-ethaneamine] | 85.6 ± 12.0 |  |
| COc1c(Br)cc2c(c1Br)c(CCNC(C)=O)c(Br)n2C(C)=O [compound 9, N,1-diacetyl-2,4,6-tribromo-5-methoxyindole-3-ethaneamine] | 97.6 ± 2.4 |  |
| O=C(NCCc1c[nH]c2ccccc12)C1CC1 [compound 10, N-cyclopropylcarbonylindole-3-ethaneamine] | 21.4 |  |
| O=C(NCCc1cn(O)c2ccccc12)C1CC1 [compound 11, 1-hydroxy-N-cyclopropylcarbonylindole-3-ethaneamine] | 15.7 ± 6.8 |  |
| CCCCC(=O)NCCc1c[nH]c2ccccc12 [compound 12, N-pentanoylindole-3-ethaneamine] | 26.9 ± 11.4 |  |
| CCCCC(=O)NCCc1cn(O)c2ccccc12 [compound 13, 1-hydroxy-N-pentanoylindole-3-ethaneamine] | 25.6 ± 6.0 |  |
| CCCCCCC(=O)NCCc1c[nH]c2ccccc12 [compound 14, N-heptanoylindole-3-ethaneamine] | 70.0 ± 6.9 |  |
| CCCCCCC(=O)NCCc1cn(O)c2ccccc12 [compound 15, 1-hydroxy-N-heptanoylindole-3-ethaneamine] | 66.2 ± 13.9 |  |
| CCCCCCCCC(=O)NCCc1c[nH]c2ccccc12 [compound 16, N-nonanoylindole-3-ethaneamine] | 80.7 ± 2.5 | erection ([1]; after nine months): became equal to that in their newly-married days; hair regrowth ([1]; after nine months): approximately half the hairs in the whole head except for the left frontal part of the temporal region were black hairs; muscle ache after jogging ([1]; after nine months): rapidly disappeared in one day; skin tone and complexion ([1]; after nine months): improved; erection ([1]; after one month): considerably improved; memory ([1]; after one month): memory was improved; muscle ache after jogging ([1]; after one month): slight; growth of the black hairs [1, 2]: approximately 0.5 mm per day; hair regrowth [1, 2]: black hairs were observed to grow in the scalp of the frontal part of the parietal region that had no hair; erection ([1]; after three months): improved; hair regrowth ([1]; after three months): Many black hairs were observed to grow throughout the head except for the left frontal part of the temporal region; memory ([1]; after three months): memory and retentive powers were recovered; time until muscle ache after jogging disappeared ([1]; after three months): 2 days; duration of dilation of cutaneous and penile blood vessels ([1]; person, 1 mg two doses per day): approximately 10 hours |
| CCCCCCCCC(=O)NCCc1cn(O)c2ccccc12 [compound 17, 1-hydroxy-N-nonanoylindole-3-ethaneamine] | 79.0 ± 13 |  |
| O=C(CCCc1c[nH]c2ccccc12)NC12CC3CC(CC(C3)C1)C2 [compound 18, N-adamantyl-4-(indole-3-yl)butaneamide] | 58.6 ± 10.6 |  |
| O=C(CCCc1c[nH]c2ccccc12)NC12CC3CC(CC(C3)C1)C2 [compound 23, N-adamantyl-4-(indole-3-yl)butaneamide] | 91.5 ± 1.32 |  |
| N-adamantyl-2-(1-hydroxyindole-3-yl)acetamide [compound 22] | 100.0 ± 0.00 |  |
| N-adamantyl-2-(indole-3-yl)acetamide [compound 20] | 64.2 ± 8.70 |  |
| N-adamantyl-3-(indole-3-yl)propaneamide [compound 19] | 60.6 ± 20.7 |  |
| N-adamantyl-4-(1-hydroxyindole-3-yl)butaneamide [compound 21] | 87.7 ± 8.53 |  |
